From patent US20180344680A1, “COMPOSITIONS AND METHODS FOR TREATMENT, AMELIORATION, AND PREVENTION OF DIABETES-RELATED SKIN ULCERS” (THE ARIZONA BOARD OF REGENTS ON BEHALF OF THE UNIVERSITY OF …, priority 2015, published 2018)

Tests used:
NRF2 pathway [1] = test: Immunoblot and IHC of NRF2 and its target genes in wound skin tissues of STZ mice; format: in vivo, mouse; conditions: 12.5 mg/kg SF or 50 mg/kg CA i.p. every other day; for protein expression of NRF2 and its target genes HO-1, AKR1C1, and NQO1 (immunoblot): diabetic mouse skin tissue lysates; for NRF2 and HO-1 level by IHC: wound skin tissues of diabetic mice
Method: Diabetes mouse model and treatments. […] The STZ-induced diabetic model was previously described (see, e.g., Zheng H, et al., Diabetes 60:3055-3066, 2011) and only 8 week old male mice were included in this study. Briefly, three weeks after STZ injections, fasting glucose levels (FGL, 4 h fast) were measured using the AlphaTRAK system (Abbott Laboratory, North Chicago, Ill.) and mice with a FGL higher than or equal to 250 mg/dL were considered diabetic and included in the study (see, e.g., FIG. 2A and FIG. 3A for a detailed timeline). The mice (n=5-8) were then allocated randomly to each of the indicated treatment groups and received corn oil (control), 12.5 mg/kg SF or 50 mg/kg CA intraperitoneally every two days until skin tissues were harvested. One week after the treatments, the mice were anesthetized, their backs were shaved and cleaned. Two wounds were made with a sterile 6 mm skin biopsy punch (Health link, Jacksonville, Fla.) and covered with 3M Tegaderm pads. […] The tissues were collected using an 8 mm skin biopsy punch; one half was fixed in 10% buffered formalin and embedded in paraffin while the other half was used for protein extraction. […] Wounds and tissue collection were performed as described above.
Immunohistochemistry (IHC), immunoblot analyses, TGF-β1 immunoassay, and gelatin zymography. […] For IHC, antigen retrieval was performed by boiling in sodium citrate buffer (10 mM, pH 6.0) or EDTA buffer (1 mM, pH 8.0). After blocking endogenous peroxidase and non-specific binding, tissue sections were incubated with the indicated primary antibodies. Staining was performed using the Envision system HRP-DAB kit (DAKO North America, CA) according to the manufacturer's instructions.
For protein detection of mouse skin tissues were homogenized in lysis buffer (50 mM Tris-HCl buffer pH 7.4, 100 mM DTT, 2% SDS, 10% glycerol). Protein concentration was measured using Quant-iT Protein Assay (Invitrogen) and 150 μg of protein were resolved by SDS-PAGE and immunoblotting analyses with the indicated antibodies.
To explore the feasibility of pharmacologic activation of NRF2 in facilitating diabetic wound healing, sulforaphane (SF) and cinnamaldehyde (CA), two well-studied NRF2 activators, were tested for their ability to activate the NRF2-mediated antioxidant response in mouse skin tissues. After induction of diabetes using STZ, diabetic Nrf2^+/+ mice were intraperitoneally injected with corn oil (vehicle control), 12.5 mg/kg SF, or 50 mg/kg CA every other day for 1 week, then the wound surgery was performed and the treatment continued for 2 more weeks (FIG. 3A).

MMP9 = MMP9 expression in wound skin tissues of STZ mice (immunoblot, IHC); format: in vivo, mouse; conditions: immunoblot and IHC, day 14
Excerpt: (§1) Diabetes mouse model and treatments. Nrf2^+/+ and Nrf2^-/- C57BL/6 mice were described previously (see, e.g., Jiang T, et al., Diabetes 59:850-860, 2010) and were housed and handled in accordance with the University of Arizona Institutional Animal Care policies. The STZ-induced diabetic model was previously described (see, e.g., Zheng H, et al., Diabetes 60:3055-3066, 2011) and only 8 week old male mice were included in this study. Briefly, three weeks after STZ injections, fasting glucose levels (FGL, 4 h fast) were measured using the AlphaTRAK system (Abbott Laboratory, North Chicago, Ill.) and mice with a FGL higher than or equal to 250 mg/dL were considered diabetic and included in the study (see, e.g., FIG. 2A and FIG. 3A for a detailed timeline). […] Gross wound closure was quantified by ImageJ software, and wound healing was expressed as the percentage of the original wound area that had healed. […] Morphology was assessed by hematoxylin and eosin (H&E) staining (Vector laboratory, Burlingame, Calif.). […] Protein concentration was measured using Quant-iT Protein Assay (Invitrogen) and 150 μg of protein were resolved by SDS-PAGE and immunoblotting analyses with the indicated antibodies.

NRF2 pathway [2] = test: Immunoblot of NRF2 pathway in HaCaT cells under high glucose; format: cell-based, human; conditions: HaCaT in high glucose (HG); 5 μmol/L SF or 20 μmol/L CA; 48 h
Method: Human immortalized keratinocytes HaCaT were obtained from the Arizona Cancer Center (see, e.g., Boukamp P, et al., J Cell Biol 106:761-771, 1988). Cells were grown in Dulbecco's modified Eagle's medium (DMEM) containing low glucose (LG, 5.5 mmol/L) and 10% fetal bovine serum (FBS) in an incubator at 37° C. with 5% CO2. For the experiments, the cells were starved in serum-free LG DMEM for 24 h, then either maintained in LG DMEM or switched to high glucose (HG, 25 mmol/L) DMEM for 2 days (see, e.g., Zheng H, et al., Diabetes 60:3055-3066, 2011; Lan C C, et al., Br J Dermatol 159:1103-1115, 2008). For the treatments, the cells were dosed with 5 μmol/L SF or 20 μmol/L CA.
siRNA transfections. HaCaT cells were transfected with either a non-specific, control small interfering RNA (Con-siRNA, #1027281, Qiagen, Valencia, Calif.) or an NRF2-specific siRNA (#S100657937) using the HiPerfect transfection reagent (Qiagen) according to the manufacturer's instructions. Briefly, cells were maintained in LG or HG DMEM for 2 days and then transfected with either control or NRF2 siRNA for migration, proliferation, and apoptosis experiments. For the ROS detection, cells were maintained in LG DMEM and transfected with either control or NRF2 siRNA; 24 h later, the cells were switched to HG DMEM and treated as indicated.
Cultured HaCaT cells were harvested in 1× sample buffer (50 mM Tris-HCl pH 6.8, 2% sodium dodecyl sulfate (SDS), 10% glycerol, 100 mM dithiothreitol (DTT), 0.1% bromophenol blue), boiled and sonicated. Total cell lysates were resolved by SDS-PAGE and subjected to immunoblot analyses with the indicated antibodies. For the detection of the secreted proteins TGF-β1 and MMP9, cells were incubated 24 h in serum-free media before harvesting the medium. TGF-β1 was measured using the Quantikine human TGF-β1 immunoassay kit (R&D systems; Minneapolis, Minn.) according to the manufacturer's instructions. The absorbance at 450 nm was measured using a Synergy 2 microplate reader (BioTek, Winooski, Vt.) and the amount of TGF-β1 was calculated by standard curve. MMP9 activity was evaluated by gelatin zymography as described elsewhere (see, e.g., Toth M, et al., Methods Mol Biol 878:121-135, 2012; Zhu P, et al., Exp Dermatol 21:123-129, 2012). Briefly, the supernatant was concentrated using Amicon Ultra-0.5 mL centrifugal filters (Merck Milipore, Darmstadt, Germany) (10 kDa cut off), mixed with non-reducing sample buffer and subjected to electrophoresis in 10% polyacrylamide-0.1% w/v gelatin gels. The gels were then washed in 2.5% Triton X-100 to remove SDS and incubated with developing buffer (50 mM Tris-HCl, pH 7.6, 1 μM ZnCl2 and 5 mM CaCl2) at 37° C. for 36 h. Gels were subsequently stained with 0.2% Coomassie blue and were analyzed with ImageJ.

TGF-β1 = TGF-β1 expression in wound skin tissues of STZ mice (immunoblot, IHC); format: in vivo, mouse; conditions: immunoblot and IHC, day 14
Excerpt: as §1

Row | SMILES | protein expression of NRF2 and its target genes HO-1, AKR1C1, and NQO1 (immunoblot) (NRF2 pathway [1]) | NRF2 and HO-1 level by IHC (NRF2 pathway [1]) | MMP9 protein expression (MMP9) | protein levels of HO-1, AKR1C1, and NQO1 (NRF2 pathway [2]) | protein levels of NRF2 (NRF2 pathway [2]) | TGF-β1 expression (TGF-β1)
1 | O=CC=Cc1ccccc1 [CA, Cinnamaldehyde] | upregulated | high level | restored the protein expression of MMP9 to levels comparable to the Con mice | further induced | further NRF2 induction | restored to levels comparable to that of Con mice
2 | C[S@@+]([O-])CCCCN=C=S [SF, L-sulforaphane] | upregulated | high level | restored the protein expression of MMP9 to levels comparable to the Con mice | further induced | further NRF2 induction | restored to levels comparable to that of Con mice
